Marks after values point to notes of the source that are not given here.
Legend:
Assay type in all cases: cell-based, human
osteopontin = assay: Western blot of osteopontin expression after exposure to ASOs; settings: MDA-MB231, lipofectamine, 10 μM
osteonectin = assay: Western blot of osteonectin expression after exposure to ASOs; settings: for osteonectin expression in relation to untreated control (100%): single exposure, lipofectamine, 10 μM
[1] = test system: MDA-MB-231 breast cancer cells; assay: Clonogenicity assay (colony formation); settings: for % Control / Mean colony no.: Experiment II, single treatment; for Mean colony no.: control 705; for inhibition of colony formation (colony growth inhibition): single exposure
Method: For determining the response of MDA-MB-231 colony formation to exposure with antisense oligonucleotides and erucylphospho-NNN-trimethylpropanolamine (ErPC3) the following procedure was used. MDA-MB-231 cells were treated for various periods of time (see below), harvested and counted. Cells (5000) were then transferred into semi-solid medium containing 0.8t RPMI-methylcellulose and 30% FBS. Cells were plated onto 3.5 cm Petri-dishes (1 ml/dish) (NUNC, Wiesbaden, Germany) and usual cell culture conditions (37° C., 5% CO2 in humidified air) were applied. Colony formation (clusters of 30 or more cells) was visualized by staining with 3-[4,5-dimethylthiazol-2-yl]-2,5-diphenyltetrazolium-bromide (MTT; Serva, Heidelberg, Germany) and the resulting dark blue colonies were scored by an inverted microscope after 5-7 days. At least three dishes per treatment protocol were used.
Pending on the duration of treatment, 1×10^5-3×10^5 cells were transferred onto 6 well plates (Nunc, Wiesbaden, Germany) and grown for 24 h. For transfection, ASO stock solutions were prepared in medium without FBS. According to the protocol of the manufacturer, the respective ASO stock solution was mixed with lipofectamine to allow ASO-liposome complexes to form. To 200 μl medium containing ASO quantities resulting in 10 μM (Western blot and in vivo model) and in 5, 10, or 20 μM (clonogenicity assay) final ASO-concentrations, an equal volume of medium without FBS was added containing 5, 10, or 20 μl lipofectamine, respectively. In addition to the ASO treatment, a NSO control (20 μM final concentration with 20 μl lipofectamine) and a lipofectamine control (20 μl) were used. […] After 12 h the medium was changed, and cells were further grown for 48-72 h. In the case of a sequential combination treatment this first cycle was repeated with the respective combination partner.
The alkylphosphocholine ErPC3 was synthesized and provided by Prof. H. Eibl (MPI of Biophysical Chemistry, Göttingen, FRG). For treating MDA-MB-231 cells, ErPC3 which was kept as stock solution in ethanol and PBS (10 mM; ratio of diluents 1:1; V:V), was diluted in PBS resulting in final concentrations of 10, 14, and 20 μM. The medium containing ErPC3 was changed after 24 h in all experiments and the cells were further grown for 48-72 h without ErPC3 (for details of sequential exposure see below).
Sequential combination treatment consisted of two or three treatment cycles. The two cycle treatment started either with the ASO and was followed by ErPC3 or was performed with the reverse sequence. The three cycle treatment started either with two cycles of ASO followed by ErPC3 or an initial exposure to ErPC3 was followed by two cycles with an ASO.
Colony counts are presented as mean with corresponding standard deviation. For comparison of incidences between treatment groups the x^2 test was used and for comparison of the lesion sizes the Kruskal-Wallis test was applied. P values≦0.05 were considered significant. Predicted theoretical values of combinations were calculated according to the equation: C=a×b/100, where a and b are colony counts in percent of untreated control obtained in response to single agents. For each concentration applied theoretical values were calculated and compared with the real value of the combination. In addition, isobologram and multiple drug effect analysis was examined by a suitable program (CalcuSyn, Biosoft, Ferguson, USA) to study the nature of the interaction observed. For this purpose, the dose-effect curve for each drug alone was determined based on the experimental observations using the median-effect principle; the combination index (CI) for each combination was then calculated according to the following equation:
CI=(D)1/(Dx)1+(D)2/(Dx)2+(D1)×(D2)/(Dx)1×(Dx)2
where (D)1 and (D)2 are the doses of drug 1 and drug 2 that have x effect when used in combination and (Dx)1 and (Dx)2 are the doses of drug 1 and drug 2 that have the same x effect when used alone. […]

[2] = MDA-MB231^F (growing without FBS)

Substance	osteopontin expression in relation to untreated control (100%) (osteopontin; single exposure)	osteopontin expression in relation to untreated control (100%) (osteopontin; twofold exposure)	osteonectin expression in relation to untreated control (100%) (osteonectin; MDA-MB231)	osteonectin expression in relation to untreated control (100%) (osteonectin; [2])	osteonectin expression in relation to untreated control (100%) (osteonectin; MDA-MB435s)	further results
5′-CTCATGGTAGTGAGTTTTCC-3′ (antisense CTCATGGTAGTGAGTTTTCC; all phosphorothioate, sugars by position and methylation of C not given here) [ASO-OPN-1]	25^2)3) %	34^2)3) %	–	–	–	–
5′-GTTCAGGTCCTGGGCAACGG-3 (antisense GTTCAGGTCCTGGGCAACGG; all phosphorothioate, sugars by position and methylation of C not given here) [ASO-OPN-3]	32%	38%	–	–	–	–
5′-TCAGGTCTGCGAAACTTCTT-3′ [ASO-OPN-10]	–	86%	–	–	–	–
5′-GTGGCCACAGCATCTGGGTA-3′ [ASO-OPN-6] (antisense GTGGCCACAGCATCTGGGTA; all phosphorothioate, sugars by position and methylation of C not given here)	45%	68%	–	–	–	–
5′-ATGTTATAGTTCTTCTCGAA-3′ [ASO-ON-5]	–	–	30%	22%	27%	decrease of osteonectin (osteonectin; MDA-MB-231 cells): 70%
5′-AGGTCACAGGTCTCGAAAAA-3′ (antisense AGGTCACAGGTCTCGAAAAA; all phosphorothioate, sugars by position and methylation of C not given here) [ASO-ON-6]	–	–	52%	44%	56%	–
5′-ATGCGCAGGGGGAATTCGGT (antisense ATGCGCAGGGGGAATTCGGT; all phosphorothioate, sugars by position and methylation of C not given here) [ASO-ON-4]	–	–	50%	31%	62%	–
5′-ATGTGGCCACAGCATCTGGG-3′ (antisense ATGTGGCCACAGCATCTGGG; all phosphorothioate, sugars by position and methylation of C not given here) [ASO-OPN-8]	48%	97%	–	–	–	–
5′- TGTACTTGTCATTGTCCAGG-3′ (antisense TGTACTTGTCATTGTCCAGG; all phosphorothioate, sugars by position and methylation of C not given here) [ASO-ON-7]	–	–	50%	32%	64%	–
5′-GTGGCCACAGCATCTGGGTA-3′ [ASO-OPN-7] (antisense GTGGCCACAGCATCTGGGTA; all phosphorothioate, sugars by position and methylation of C not given here)	31%	69%	–	–	–	–
5′-TTCAGGTCCTGGGCAACGGG-3′ [ASO-OPN-2]	45%	60%	–	–	–	–
5′-GGGGGCTGGGCAGCTGGTGG-3′ (antisense GGGGGCTGGGCAGCTGGTGG; all phosphorothioate, sugars by position and methylation of C not given here) [ASO-ON-3]	–	–	25%	22%	29%	decrease of osteonectin (osteonectin; MDA-MB-231 cells): 75%; maximum inhibition of protein expression / suppression of protein level (ON) (osteonectin; MDA-MB-231 cells, Western blot): 75%; % Control ([1]; 5 μM): 92%; Mean colony no. ([1]; 5 μM): 648^6); % Control ([1]; 10 μM): 82%; Mean colony no. ([1]; 10 μM): 576^7); % Control ([1]; 20 μM): 73%; Mean colony no. ([1]; 20 μM): 514; inhibition of colony formation (colony growth inhibition) ([1]; 5 μM): 8%; inhibition of colony formation (colony growth inhibition) ([1]; 10 μM): 14%; inhibition of colony formation (colony growth inhibition) ([1]; 20 μM): 27%; inhibition of colony formation (colony growth inhibition) ([1]; 20 μM, listed as ASO-ON-03, 20 µM): 21%
5′-ACACTAACTTAAAAAACAAA-3′ (antisense ACACTAACTTAAAAAACAAA; all phosphorothioate, sugars by position and methylation of C not given here) [ASO-OPN-5]	43%	80%	–	–	–	–
5′-GGTCTGCGAAACTTCTTAGA-3′ [ASO-OPN-9]	–	74%	–	–	–	–

— US20090017103A1, “Antisense oligonucleotides for prevention of metastasis formation of cancer cells” (priority 2003, published 2009)
